Data: patent publication US20070167421A1, “Pyrimidine derivatives and use thereof as agricultural and horticultural fungicides” (priority 2004, published 2007)

Key:
[1] = test system: Paddy rice (variety: KOSHIHIKARI); settings: in vivo
[2] = test system: Cucumber (variety: SAGAMI HANPAKU); assay: Phytotoxicity studied in Test Example 2; assay type: in vivo; settings: 500 ppm, foliage spray
Experimental: Cucumber (variety: SAGAMI HANPAKU) was cultivated in a plastic pot of 4 cm diameter. A diluted solution of an active compound of the prescribed concentration, prepared in a similar manner as in the above-mentioned Test Example 1, was sprayed to seedlings reached to cotyledon in an amount of 6 ml per 3 pots. One day after the spraying, a suspension of spores, prepared by washing spores of Sphaerotheca fuliginea taken from previously infected cucumber into distilled water, was inoculated to the plant to be treated by spraying (once) and infected in a green house. Seven days after the inoculation, the contraction rate per pot was classified and evaluated to obtain the controlling value (%). Phytotoxicity was also studied at the same time. This test is an average of the results of 1 section 3 pots.

[3] = test system: nursery stock (variety: OREGON SUPER DELICIOUS) leaves; assay: Phytotoxicity studied in Test Example 4; assay type: in vivo; settings: 500 ppm, spray on detached leaves of nursery stock
Experimental: A nursery stock (variety: OREGON SUPER DELICIOUS) was cultivated in a plastic pot of 30 cm diameter and its leaves, which had reached at perfect extension stage, were detached from the petiole, were cultivated under hydroponic condition by using a water-holding carrier. After that, a diluted solution of an active compound of the prescribed concentration, prepared in a similar manner as in the above-mentioned Test Example 1, was sprayed to the leaves in an amount of 6 ml per 3 leaves. One day after the spraying, a suspension of spores of artificially cultured Alternaria mali was inoculated to the leaves by spraying (once) and infected by transferring them into a moisturizing box and keeping at 20° C. Four days after the inoculation, the contraction rate per pot was classified and evaluated according to the following standard and the controlling value (%) was obtained. Phytotoxicity was also studied at the same time. This test is an average of the results of 1 section 3 leaves.

Tomato (variety: REGINA) = settings: in vivo

| Compound | Phytotoxicity [1] | Phytotoxicity [2] | Phytotoxicity [3] | other results |
| --- | --- | --- | --- | --- |
| CC1CCCN1c1ncnc(Cl)c1Cc1ccc(F)c(F)c1 (stereo not shown) [Compound 1-16] | No phytotoxicity was observed | No phytotoxicity was observed |  |  |
| CC1CCCN1c1ncnc(Cl)c1Cc1cc(F)cc(F)c1 (stereo not shown) [Compound 1-17] | No phytotoxicity was observed | No phytotoxicity was observed |  |  |
| CC1C=CC(C)N1c1ncnc(Cl)c1Cc1ccccc1 (stereo not shown) [Compound 1-36] | No phytotoxicity was observed |  | No phytotoxicity was observed |  |
| CC1CCCN1c1ncnc(Cl)c1Cc1ccccc1 (stereo not shown) [Compound 1-11] | No phytotoxicity was observed | No phytotoxicity was observed |  |  |
| Fc1ccc(Cc2c(Cl)ncnc2N2CCCC2)cc1 [Compound 1-68] | No phytotoxicity was observed | No phytotoxicity was observed |  |  |
| Clc1nc(-c2ccccn2)nc(N2CCCC2)c1Cc1ccccc1 [Compound 1-238] | No phytotoxicity was observed |  |  | Phytotoxicity (Tomato (variety: REGINA)): No phytotoxicity was observed |
| Clc1ncnc(N2CC=CC2)c1Cc1ccccc1 [Compound 1-33] | No phytotoxicity was observed |  | No phytotoxicity was observed |  |
| Fc1ccccc1Cc1c(Cl)ncnc1N1CCCC1 [Compound 1-45] | No phytotoxicity was observed |  |  |  |
| CC(C)(C)c1nc(Cl)c(Cc2ccccc2)c(N2CCCC2)n1 [Compound 1-121] |  |  | No phytotoxicity was observed |  |
| Fc1cccc(Cc2cncnc2N2CCCC2)c1 [Compound 1-102, 5-(3-fluorobenzyl)-4-pyrrolidin-1-yl-pyrimidine] | No phytotoxicity was observed |  | No phytotoxicity was observed | melting point: 51 to 54 °C |
| Cc1cc(C)n(-c2nc(C)nc(Cl)c2Cc2ccccc2)n1 [Compound 1-523] |  |  | No phytotoxicity was observed |  |
| Clc1cccc(Cc2c(Cl)ncnc2N2CCCC2)c1 [Compound 1-57] | No phytotoxicity was observed | No phytotoxicity was observed |  |  |
| Clc1ncnc(N2CCC=N2)c1Cc1ccccc1 [Compound 1-42] |  |  | No phytotoxicity was observed |  |
| CS(=O)(=O)c1nc(Cl)c(Cc2ccccc2)c(N2CCCC2)n1 |  |  |  | melting point: 136 to 138 °C |
| Clc1ncnc(N2CCCC2)c1Cc1ccccc1 [Compound 1-5, 5-benzyl-4-chloro-6-pyrrolidin-1-yl-pyrimidine] | No phytotoxicity was observed | No phytotoxicity was observed | No phytotoxicity was observed | Phytotoxicity (Tomato (variety: REGINA)): No phytotoxicity was observed |
| Fc1cc(F)cc(Cc2c(Cl)ncnc2N2CCCC2)c1 [Compound 1-87] | No phytotoxicity was observed | No phytotoxicity was observed |  |  |
| COc1ncnc(N2CCCC2)c1Cc1cccc(F)c1 |  |  |  | melting point: 74 to 76 °C |
| Clc1nc(-n2cncn2)nc(N2CCCC2)c1Cc1ccccc1 [Compound 1-435] |  |  | No phytotoxicity was observed |  |
| CC(c1ccccc1)c1c(Cl)ncnc1N1CCCC1 (racemic) [Compound 1-6] |  | No phytotoxicity was observed |  |  |
| OC[C@H]1CCCN1c1ncnc(Cl)c1Cc1ccccc1 [Compound 1-22] | No phytotoxicity was observed |  |  |  |
| Clc1cccc(Cc2c(Cl)ncnc2N2CCSC2)c1 [Compound 1-41] |  |  | No phytotoxicity was observed |  |
| Clc1nc(-c2ccncc2)nc(N2CCCC2)c1Cc1ccccc1 [Compound 1-304] |  |  | No phytotoxicity was observed |  |
| Fc1ccc(Cc2c(Cl)ncnc2N2CCCC2)cc1F [Compound 1-86] | No phytotoxicity was observed | No phytotoxicity was observed |  |  |
| CC1CCCN1c1ncnc(Cl)c1Cc1cccc(F)c1 (stereo not shown) [Compound 1-14] | No phytotoxicity was observed | No phytotoxicity was observed | No phytotoxicity was observed |  |
| CC1CCCN1c1ncnc(Cl)c1Cc1cccc(Cl)c1 (stereo not shown) [Compound 1-15] | No phytotoxicity was observed | No phytotoxicity was observed |  |  |
| Clc1ccccc1Cc1c(Cl)ncnc1N1CCCC1 [Compound 1-46] |  | No phytotoxicity was observed | No phytotoxicity was observed |  |
| Clc1ncnc(N2CCSC2)c1Cc1ccccc1 [Compound 1-37] | No phytotoxicity was observed |  |  |  |
| Fc1cccc(Cc2c(Cl)ncnc2N2CCCC2)c1 [Compound 1-56, 4-Chloro-5-(3-fluorobenzyl)-6-pyrrolidin-1-yl-pyrimidine] | No phytotoxicity was observed | No phytotoxicity was observed | No phytotoxicity was observed |  |
| CSc1nc(Cl)c(Cc2ccccc2)c(N2CCCC2)n1 [Compound 1-165, 5-benzyl-4-chloro-2-methylthio-6-pyrrolidin-1-yl-pyrimidine] |  |  |  | melting point: 97 to 99 °C; Phytotoxicity (Tomato (variety: REGINA)): No phytotoxicity was observed |
| Clc1nc(-c2cnccn2)nc(N2CCCC2)c1Cc1ccccc1 [Compound 1-311] |  |  | No phytotoxicity was observed |  |
